Reference: US12485100B2, “Treatment of menstrual cycle-induced symptoms” (Period Pill BV, priority 2019, dated 2025)
“Also recorded” adds a separate entry of the source.

Assays:
[1] = animal models, cited from earlier work
[2] = system: women with menstrual cycle-induced symptoms (e.g. PMS, PMDD); assay: Closed label trials of 3-MMC for menstrual cycle-induced symptoms (case reports of 11 women); type: in vivo, human
From the text: The following case studies exemplify some aspects of some embodiments of the methods of the present invention for treating perimenstrual disorders in subjects suffering at least one menstrual cycle-induced symptom by administering 3-MMC.
Detailed reports of 11 experiences of women with unlabeled (“pill”) 3-MMC for menstrual cycle-induced symptoms.
Between the second half of 2018 and the first months of 2019, eleven women participated in a blinded trial of 3-MMC (the “pill”) administered to alleviate their menstrual cycle-induced symptoms. The subjects tried different doses ranging from 12.5 mg. up to 50 mg.
Each one of the women used the 3-MMC for relief for at least two to three consecutive menstrual periods, with the number of trials varying from two to seven per woman, making a total of 45 trials.
Thus, the experience with 3-MMC for menstrual cycle-induced symptoms reported here is from […] separate trials.

[3] = 12.5 mg then 25 mg with an interval of five hours (Ana)
[4] = one dose of 12.5 mg plus one dose of 25 mg, total 37.5 mg
[5] = one dose of 12.5 mg, individual trials
[6] = one dose of 25 mg, individual trials
[7] = two doses of 12.5 mg (Ana: interval of five hours; Jenny: equivalent to 25 mg)
[8] = two doses of 25 mg, one hour interval, total 50 mg (Katy)

In the case of `CNC(C)C(=O)c1cccc(C)c1` (centres unmarked) [3-MMC, 3-methylmethcathinone], the “time of peak serum concentrations” value ([1]; after oral administration) is given as 5 to 10 min, the apparent plasma half-life ([1]; after oral ingestion) is given as “approximately 0.8 hours” and the “relief of symptoms at low dose (overview)” value ([2]; 12.5 mg) is given as “while not consistent, was often effective in providing relief of symptoms”. For the same compound, the Psychological reaction [2, 3] was “experienced less emotional distress and felt much calmer”, the Side effects [2, 3] was “an outbreak of acne” and the “Response summary of the subject” value ([2]; 37.5 mg dose) was “more aware of themself, more concentrated, energetic, daring, calmer, but they would still be irritated or angry; also recorded: Rebecca felt actually very good”. For the same compound, the “undesired side effects (overview)” value ([2]; 30-35 mg) was “some undesired side effects, such as tachycardia or temperature changes were occasionally more noticeable”, the “effect when administered in anticipation of symptoms” value ([2]; administration prior to symptom onset) was “can significantly reduce the intensity as well as duration of many menstrual cycle induced symptoms” and the “most commonly reported psychological and emotional effects” value ([2]; all subjects) was “enhanced their overall sense of well-being, increased energy levels, induced calmness and relaxation and heightened abilities of concentration; also recorded: a sense of relaxation and calm, often combined with heightened energy and ability to concentrate”. For the same compound, the “most commonly reported side effects” value ([2]; all subjects, 12.5-50 mg) was “tachycardia, sensation of body temperature changes (usually feeling warmer or sometimes colder) and sweating”, the “overall reported experience / relief of symptoms” value ([2]; eleven women, about 60 trials, doses 12.5 mg up to 50 mg) was “Ten out of the eleven reported a rather good to a very positive experience; also recorded: A desired positive effect was achieved with most trials; also recorded: provided relief from more than one of the reported menstrual cycle-induced symptoms” and the “side effects, individual subject's summary over all their doses” value ([2]; individual subjects, all doses taken) was “they never perceived non-desired side-effects; also recorded: increased heartbeat and stomach pain on empty stomach; also recorded: noticed body temperature changes; also recorded: an unfamiliar tingling at the back of the tongue and throat; also recorded: They experienced no side effects or physical reactions worth mentioning; also recorded: had no physical reactions or undesired side effects with any of the doses; also recorded: some light and non-desirable effects such as body temperature changes”. The Psychological reaction [2, 4] was “more willing to do things with an energetic flow that lasted up to four hours; also recorded: they could still sense anger and irritation, but now more in control; also recorded: They felt less irritated, less angry and more relaxed; also recorded: No perceived psychological effect; also recorded: felt very much calmer and much more relaxed than usual; also recorded: felt more awake, more energetic, more alive, therefore less tired and irritated”, the Side effects [2, 4] was “Accelerated heartbeat, dizziness, feeling hot and sweating and Accelerated heartbeat, sweating and lack of appetite and None and Sweating and appetite loss” and the Psychological reaction [2, 5] was “felt more emotionally stable after one hour, less oversensitive, less anxious and they had a slightly heightened mood and felt less depressed, not lethargic, down or exhausted anymore and They were no longer feeling down and exhausted and Exhaustion, feeling down, mood swings, feeling alone and helpless, over sensitive, powerlessness, forgetfulness, willing to cry and Experiencing less anxiety and nervousness, feeling calmer and not very focused, only a little and less irritable but not a major difference and more relaxed, less emotionally distressed and Calmer and more stable and less mood swings, less upset, less emotional and less tired and Ines felt calmer, less nervous and emotional and less distressed and tense and None (they felt no effect whatsoever with this small dose) and None and None, not better nor worse”. The Side effects [2, 5] was “perceived no negative physical reactions or side effects and Stomach pain and none and none (apart from feeling warmer) and Tingling tongue, light somnolence and None”, the Psychological reaction [2, 6] was “emotional distress, mood swings and anxiety decreased; also recorded: Ana felt calmer and more relaxed; also recorded: felt less angry and irritated; also recorded: they were more focused, having a heightened mood, they felt less helpless and more in control; also recorded: experienced no emotional distress or feeling down or any tension; also recorded: no longer feeling low, anxious or distressed; also recorded: feeling focused and motivated to study; also recorded: feeling focused and more concentrated; also recorded: they could focus and concentrate on their studies and was also more motivated; also recorded: they felt relaxed, calmer; also recorded: Fanny felt calmer and stable; also recorded: no longer feeling upset, felt a lot calmer; also recorded: Small, but transient improvement in their mood; also recorded: felt more relaxed, less tense; also recorded: feeling noticeably less upset and less sad; also recorded: Jenny felt better, less anxious, less unhappy; also recorded: felt better and more relaxed; also recorded: Her sadness faded away; also recorded: relief of the sadness, not down or stressed anymore; also recorded: experienced slightly less tension; also recorded: a bit calmer, after two hours very relaxed, not crying anymore” and the Side effects [2, 6] was “none and None and stomach ache (on an empty stomach) and a higher heart rate and Cold hands and feet and drowsiness and some muscle pain or tension and Temporal slight stomach and muscle pain and Perceived body temperature changes, tingling sensation in the throat and Difficulty to go to sleep and somewhat tired and body temperature changes”. The interaction with paracetamol ([2]; one subject (Bea), 12.5 mg 3-MMC combined with paracetamol) was “did not experience any undesirable interactions with the 3-MMC; also recorded: without any noticeable substance interaction or undesired effect”, the “side effects with repeated use” value ([2]; repeated use) was “side-effects tend to diminish over time with repeated use of 3-MMC” and the “effect when administered after onset of symptoms” value ([2]; some subjects) was 3-MMC was effective even when administered after the onset of menstrual cycle-induced symptoms. For the same compound, the “effect on somatic symptoms” value ([2]; some subjects (e.g. headache, physical pain)) was “administration of 3-MMC resulted in disappearance of somatic symptoms (e.g. headache); also recorded: can also produce a reduction in somatic symptoms (e.g. physical pain); also recorded: some of the subjects reported alleviation of somatic symptoms”, the perceived effect ([2]; subject Gertie, 40 mg in one intake) was “a bit too much” and the perceived benefit ([2]; subject Gertie, doses between 10 mg and 20 mg) was “They didn't perceive any benefit”. The perceived benefit ([2]; subject Gertie, doses between 20 and 30 mg) was “They felt positive effects”, the “response and psychological effects” value ([2]; subject Gertie, one or two pills a couple of days before menstruation, usual dose 20-25 mg) was “feels less tense; also recorded: they are able to take decisions again; also recorded: a radical positive life change” and the response summary ([2]; subject Ines, alternating doses of 12.5 mg and 25 mg, seven occasions) was “The main effect was calming and relaxing; also recorded: no significant dose response has been observed”. The Psychological reaction [2, 7] was “their emotional distress, feeling down, mood swings, helplessness and anxiety declined; also recorded: felt more energized, no longer down or sad”, the Side effects [2, 7] was “none and None” and the Psychological reaction [2, 8] was “no longer angry although they could still feel irritated; also recorded: They experienced reduced irritability and anger; also recorded: felt more energetic, less irritated and after two hours they were very calm”. For the same compound, the Side effects [2, 8] was “Increased heartbeat, sweating and loss of appetite; also recorded: No noticeable side effects; also recorded: a brief period (one hour) of depression” and the “cumulative positive effect of repeated administration” value ([2]; two or more consecutive doses within about 24 hours of each other) was “taking the pill two consecutive days made the effect of the second one last longer; also recorded: Possibly a cumulative effect; also recorded: a sort of a cumulative positive effect; also recorded: the positive effects of 3-MMC reportedly persisted; also recorded: positive effects persist”.
